Patent US5958894A, “Amphiphilic biguanide derivatives” (Megabios Corporation, priority 1997, dated 1999)

Assays:
[1] = strongly basic head group; cited from earlier work
[2] = Liposome hydration and extrusion; assay type: physicochemical; conditions: at 50° C.; with either DLPE or cholesterol
Procedure: (§1) DOBG, DMBG and DPBG were used to prepare liposomes with either cholesterol or DLPE (1,2-dilauroyl-sn-glycerol-3-phosphoethanolamine) as neutral lipids. The lipids were dissolved in a mixture of chloroform and methanol (1:1). Lipid films of cationic and neutral lipid at a 1:1 molar ratio were formed with a rotary evaporator. The films were hydrated with either 5% dextrose in water (D5W) or 5 mM HEPES buffer (pH 7.4) at various temperatures. […] DMBG:DLPE was hydrated in D5W at 50° C. and extruded through a 0.05 μm membrane. […] DOBG:cholesterol and DOBG:DLPE were hydrated in D5W at room temperature and extruded through a 0.05 μm membrane.

[3] = test system: in vivo transfection; assay: Comparison of in vivo transfection activity of biguanide and guanidine derivatives with identical hydrophobic chains; conditions: data not shown
From the text: The biguanide derivatives of the present invention differ from the guanidine derivatives described in WO 95/14381 in the positively charged headgroups. The positive charge of the biguanide derivatives is delocalized over five nitrogen atoms, whereas the positive charge of the guanidine derivatives is delocalized over three nitrogen atoms. Thus, compounds of the present invention have been compared to the guanidine derivatives having the identical hydrophobic chains (not shown).

[4] = test system: CAT reporter gene expression in lung; assay: Gene transfer efficiency by intravenous delivery: CAT reporter gene (plasmid p4119) activity in mouse organs; assay type: in vivo, ICR female mice; conditions: with either cholesterol or DLPE as neutral lipids
Procedure: as §1

## N=C(N)NC(=N)N [biguanide]
[1]
  pKa: 11.5

## CCCCCCCCCCCCCCCC(=O)OCCN(CCOC(=O)CCCCCCCCCCCCCCC)C(=N)NC(=N)N [DPBG, N,N-di(2-(palmitoyloxy)ethyl)biguanide]
[2]
  Hydration of lipid film: could not be completely hydrated

## CCCCCCCC/C=C\CCCCCCCC(=O)OCCN(CCOC(=O)CCCCCCC/C=C\CCCCCCCC)C(=N)NC(=N)N [DOBG, N,N-di(2-(oleoyloxy)ethyl) biguanide]
[3]
  in vivo transfection activity, dioleoyl derivatives of biguanide versus guanidine: higher in vivo transfection activity than the dioleolyl derivatives of guanidine
[4]
  transfection activity in the lung compared with DOTIM:cholesterol: comparable to or higher than DOTIM:cholesterol
